Columns and labels:
[1] = molecular target: T1, HCV NS5B RdRp genotype 1b (Hepatitis C virus genotype 1b, UniProt Q9WMX2); assay: HCV NS5B RdRp enzyme assay (preincubation protocol); format: biochemical
T1 construct: The protein was expressed with an 18 amino acid C-terminal truncation to enhance the solubility; made in house; host or cells: E. coli BL21 (DE3)
Procedure: HCV NS5B RdRp cloning, expression, and purification. The cDNA encoding the NS5B protein of HCV, genotype 1b, was cloned into the pET21a expression vector. The protein was expressed with an 18 amino acid C-terminal truncation to enhance the solubility. The E. coli competent cell line BL21 (DE3) was used for expression of the protein. Cultures were grown at 37° C. for ˜4 hours until the cultures reached an optical density of 2.0 at 600 nm. The cultures were cooled to 20° C. and induced with 1 mM IPTG. Fresh ampicillin was added to a final concentration of 50 μg/ml and the cells were grown overnight at 20° C.
Cell pellets (3 L) were lysed for purification to yield 15-24 mgs of purified NS5B. The lysis buffer consisted of 20 mM Tris-HCl, pH 7.4, 500 mM NaCl, 0.5% triton X-100, 1 mM DTT, 1 mM EDTA, 20% glycerol, 0.5 mg/ml lysozyme, 10 mM MgCl2, 15 ug/ml deoxyribonuclease I, and Complete TM protease inhibitor tablets (Roche). After addition of the lysis buffer, frozen cell pellets were resuspended using a tissue homogenizer. To reduce the viscosity of the sample, aliquots of the lysate were sonicated on ice using a microtip attached to a Branson sonicator. The sonicated lysate was centrifuged at 100,000×g for 1 hr at 4° C. and filtered through a 0.2 μm filter unit (Corning).
The protein was purified using three sequential chromatography steps: Heparin sepharose CL-6B, polyU sepharose 4B, and Hitrap SP sepharose (Pharmacia). The chromatography buffers were identical to the lysis buffer but contained no lysozyme, deoxyribonuclease I, MgCl2 or protease inhibitor and the NaCl concentration of the buffer was adjusted according to the requirements for charging the protein onto the column. Each column was eluted with a NaCl gradient which varied in length from 5-50 column volumes depending on the column type. After the final chromatography step, the resulting purity of the enzyme is >90% based on SDS-PAGE analysis. The enzyme was aliquoted and stored at −80° C.
Standard HCV NS5B RdRp enzyme assay. HCV RdRp genotype 1b assays were run in a final volume of 60 μl in 96 well plates (Costar 3912). The assay buffer is composed of 20 mM Hepes, pH 7.5, 2.5 mM KCl, 2.5 mM MgCl2, 1 mM DTT, 1.6 U RNAse inhibitor (Promega N2515), 0.1 mg/ml BSA (Promega R3961), and 2% glycerol. All compounds were serially diluted (3-fold) in DMSO and diluted further in water such that the final concentration of DMSO in the assay was 2%. HCV RdRp genotype 1b enzyme was used at a final concentration of 28 nM. A polyA template was used at 6 nM, and a biotinylated oligo-dT12 primer was used at 180 nM final concentration. Template was obtained commercially (Amersham 27-4110). Biotinylated primer was prepared by Sigma Genosys. 3H-UTP was used at 0.6 μCi (0.29 μM total UTP). Reactions were initiated by the addition of enzyme, incubated at 30° C. for 60 min, and stopped by adding 25 μl of 50 mM EDTA containing SPA beads (4 μg/μl, Amersham RPNQ 0007). Plates were read on a Packard Top Count NXT after >1 hr incubation at room temperature.
Modified HCV NS5B RdRp enzyme assay. A modified enzyme assay was performed essentially as described for the standard enzyme assay except for the following: The biotinylated oligo dT12 primer was precaptured on streptavidin-coated SPA beads by mixing primer and beads in assay buffer and incubating at room temperature for one hour. Unbound primer was removed after centrifugation. The primer-bound beads were resuspended in 20 mM Hepes buffer, pH 7.5 and used in the assay at final concentrations of 20 nM primer and 0.67 μg/μl beads. Order of addition in the assay: enzyme (14 nM) was added to diluted compound followed by the addition of a mixture of template (0.2 nM), 3H-UTP (0.6 μCi, 0.29 μM), and primer-bound beads, to initiate the reaction; concentrations given are final. Reactions were allowed to proceed for 4 hours at 30° C.
IC50 values for compounds were determined using seven different [I]. […]

[2] = tested on: HCV replicon cells; assay: HCV replicon FRET assay; format: cell-based; settings: Hepatitis C virus
From the text: FRET Assay Preparation. To perform the HCV FRET screening assay, 96-well cell culture plates were used. The FRET peptide (Anaspec, Inc.) (Taliani et al., Anal. Biochem. 1996, 240, 60-67) contains a fluorescence donor, EDANS, near one end of the peptide and an acceptor, DABCYL, near the other end. The fluorescence of the peptide is quenched by […] resonance energy transfer (RET) between the donor and the acceptor, but as the NS3 protease cleaves the peptide the products are released from RET quenching and the fluorescence of the donor becomes apparent. The assay reagent was made as follows: 5× cell Luciferase cell culture lysis reagent from Promega (#E153A) diluted to 1× with dH2O, NaCl added to 150 mM final, the FRET peptide diluted to 20 uM final from a 2 mM stock.
To prepare plates, HCV replicon cells, with or without a Renilla luciferase reporter gene, were trypsinized and placed into each well of a 96-well plate with titrated test compounds added in columns 3 through 12; columns 1 and 2 contained a control compound (HCV protease inhibitor), and the bottom row contained cells without compound. The plates were then placed in a CO2 incubator at 37° C.
Assays. Subsequent to addition of the test compounds described above (FRET Assay Preparation), at various times the plate was removed and Alamar blue solution (Trek Diagnostics, #00-100) was added per well as a measure of cellular toxicity. After reading in a Cytoflour 4000 instrument (PE Biosystems), plates were rinsed with PBS and then used for FRET assay by the addition of 30 ul of the FRET peptide assay reagent described above (FRET Assay Preparation) per well. The plate was then placed into the Cytoflour 4000 instrument which had been set to 340 excite/490 emission, automatic mode for 20 cycles and the plate read in a kinetic mode. Typically, the signal to noise using an endpoint analysis after the reads was at least three-fold. Alternatively, after Alamar blue reading, plates were rinsed with PBS, 50 ul of DMEM (high glucose) without phenol red was added and plates were then used for luciferase assay using the Promega Dual-Glo Luciferase Assay System.
Compound analysis was determined by quantification of the relative HCV replicon inhibition and the relative cytotoxicity values. To calculate cytoxicity values, the average Alamar Blue fluorescence signals from the control wells were set as 100% non-toxic. The individual signals in each of the compound test wells were then divided by the average control signal and multiplied by 100% to determine […]. To calculate the HCV replicon inhibition values, an average background value was obtained from the two wells containing the highest amount of HCV protease inhibitor at the end of the assay period. These numbers were similar to those obtained from naïve Huh-7 cells.
The background numbers were then subtracted from the average signal obtained from the control wells and this number was used as 100% activity. The individual signals in each of the compound test wells were then divided by the averaged control values after background subtraction and multiplied by 100% to determine percent activity. EC50 values for a protease inhibitor titration were calculated as the concentration which caused a 50% reduction in FRET or luciferase activity. The two numbers generated for the compound plate, percent cytotoxicity and percent activity were used to determine compounds of interest for further analysis.

T1 sequence (Q9WMX2 2420-2992): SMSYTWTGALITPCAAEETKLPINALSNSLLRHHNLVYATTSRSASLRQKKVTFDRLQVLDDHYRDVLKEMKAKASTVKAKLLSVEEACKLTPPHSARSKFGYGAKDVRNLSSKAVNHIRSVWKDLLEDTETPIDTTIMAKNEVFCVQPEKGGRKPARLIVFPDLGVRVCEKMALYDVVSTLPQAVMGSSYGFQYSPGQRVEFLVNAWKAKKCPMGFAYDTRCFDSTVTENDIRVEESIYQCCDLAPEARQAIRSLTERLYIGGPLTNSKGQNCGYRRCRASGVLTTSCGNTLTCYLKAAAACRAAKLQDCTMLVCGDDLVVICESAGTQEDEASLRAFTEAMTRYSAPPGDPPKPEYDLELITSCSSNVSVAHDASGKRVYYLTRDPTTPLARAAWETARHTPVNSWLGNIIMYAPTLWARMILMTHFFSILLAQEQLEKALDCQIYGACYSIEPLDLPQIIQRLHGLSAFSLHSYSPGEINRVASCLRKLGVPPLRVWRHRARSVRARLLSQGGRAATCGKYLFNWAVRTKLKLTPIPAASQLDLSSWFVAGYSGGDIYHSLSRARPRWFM

| SMILES | IC50 [1] [nM] | EC50 [2] [nM] |
| --- | --- | --- |
| COC(=O)c1ccc2c(C3CCCCC3)c(-c3ccccc3)n3c2c1CCC3 | > 10000 | > 120 |
| O=C(O)c1ccc2c(C3CCCCC3)c(-c3ccccc3)n3c2c1CCCC3 | > 1000 | > 1000 |
| O=C(O)c1ccc2c(C3CCCCC3)c(-c3ccccc3)n3c2c1C=CCC3 | > 1000 | > 1000 |
| COC(=O)c1ccc2c(C3CCCCC3)c(-c3ccccc3)n3c2c1C=CCC3 | > 10000 | > 120 |
| O=C(O)c1ccc2c(C3CCCCC3)c(-c3ccccc3)n3c2c1CCC3C(=O)N1CCOCC1 (stereo not drawn) | 30 to 1000 | 30 to 1000 |
| COC(=O)c1ccc2c(C3CCCCC3)c(-c3ccccc3)n3c2c1CCC3C(=O)OC (stereo not drawn) | > 10000 | > 1000 |
| COC(=O)c1ccc2c(C3CCCCC3)c(-c3ccccc3)n3c2c1CCC3C(=O)O (stereo not drawn) | > 1000 | > 120 |
| COC(=O)c1ccc2c(C3CCCCC3)c(-c3ccccc3)n3c2c1CCC3C(=O)N1CCOCC1 (stereo not drawn) | > 1000 | > 120 |
| CN(C)S(=O)(=O)NC(=O)c1ccc2c(C3CCCCC3)c(-c3ccccc3)n3c2c1CCC3C(=O)N1CCOCC1 (stereo not drawn) | 1000 to 10000 | 1000 to 10000 |
| CCOC(=O)/C=C/c1ccc(NC(=O)C2(NC(=O)c3ccc4c(C5CCCCC5)c(-c5ccccc5)n5c4c3CCC5C(=O)N3CCOCC3)CCCC2)cc1 (stereo not drawn) | 1000 to 10000 | 30 to 1000 |
| O=C(O)/C=C/c1ccc(NC(=O)C2(NC(=O)c3ccc4c(C5CCCCC5)c(-c5ccccc5)n5c4c3CCC5C(=O)N3CCOCC3)CCCC2)cc1 (stereo not drawn) | 30 to 1000 | 1000 to 10000 |
| O=C(O)c1ccc2c(C3CCCCC3)c(-c3ccccc3)n3c2c1OCC3 | 30 to 1000 | 1000 to 10000 |
| CN(C)S(=O)(=O)NC(=O)c1ccc2c(C3CCCCC3)c(-c3ccccc3)n3c2c1OCC3 | 1000 to 10000 | 1000 to 10000 |
| CCOC(=O)/C=C/c1ccc(NC(=O)C2(NC(=O)c3ccc4c(C5CCCCC5)c(-c5ccccc5)n5c4c3OCC5)CCCC2)cc1 | 30 to 1000 | > 1000 |
| O=C(O)/C=C/c1ccc(NC(=O)C2(NC(=O)c3ccc4c(C5CCCCC5)c(-c5ccccc5)n5c4c3OCC5)CCCC2)cc1 | 30 to 1000 | 30 to 1000 |
| O=C(NS(=O)(=O)C1CC1)c1ccc2c(C3CCCCC3)c(-c3ccccc3)n3c2c1CCC3C(=O)N1CCOCC1 (stereo not drawn) | 1000 to 10000 | > 10000 |
| C[C@@H]1CN(C(=O)C2CCc3c(C(=O)O)ccc4c(C5CCCCC5)c(-c5ccccc5)n2c34)C[C@H](C)O1 (stereo partly drawn) | > 1000 | 1000 to 10000 |
| O=C(O)c1ccc2c(C3CCCCC3)c(-c3ccccc3)n3c2c1CCC3C(=O)O (stereo not drawn) | > 1000 | > 10000 |
| COC(=O)c1ccc2c(C3CCCCC3)c(-c3ccccc3)n3c2c1OCC3 | 1000 to 10000 | > 120 |
| O=C(O)/C=C\c1ccc(NC(=O)C2(NC(=O)c3ccc4c(C5CCCCC5)c(-c5ccccc5)n5c4c3OCC5)CCCC2)cc1 | 30 to 1000 | 30 to 1000 |
| COc1ccc(-c2c(C3CCCCC3)c3ccc(C(=O)NC4(C(=O)Nc5ccc(C=CC(=O)O)cc5)CCCC4)c4c3n2CCO4)cc1 | 30 to 1000 | 30 to 1000 |
| CCOC(=O)/C=C/c1ccc(NC(=O)C2(NC(=O)c3ccc4c(C5CCCCC5)c(-c5ccc(OC)cc5)n5c4c3OCC5)CCCC2)cc1 | 30 to 1000 | > 1000 |
| COC(=O)c1ccc2c(C3CCCCC3)c(-c3ccccc3)n3c2c1OC(C(=O)OC)C3 (stereo not drawn) | > 1000 | > 1000 |
| COc1ccc(-c2c(C3CCCCC3)c3ccc(C(=O)O)c4c3n2CCO4)cc1 | 30 to 1000 | 1000 to 10000 |

From patent US7998951B2, “HCV NS5B inhibitors” (Bristol-Myers Squibb Company, priority 2007, dated 2011)
